Measurements as given in patent publication US10329324B2 (viDA Therapeutics Inc., priority 2013, dated 2019).
Like-named read-outs stand apart in the source and are kept apart here.

Target: T1, human Granzyme B (hGzmB) (Homo sapiens, UniProt P10144)
T1 construct: purchased Froelich Lab, Northshore University Health Systems Research Institute, Evanston, Ill., USA
Experiment: Human Granzyme B enzymatic inhibition assay (fluorogenic, kinetic)
Type: biochemical
Procedure: A specific 2× assay buffer was prepared for the enzyme to be tested (see Table 2 for final 1× assay buffer compositions). If the assay buffer included DTT, it was added immediately prior to running the assay. A 2× enzyme mix was prepared (see Table 3 for enzyme assay conditions) at 80 uL per well. Compounds were screened at one or two appropriate concentrations (to determine the percent inhibition at those concentrations) and/or a full dose response curve (typically 8 points, to identify the IC50) in duplicate, triplicate, or higher replicates as needed. An appropriate control was also assessed in full dose response, in duplicate for each assay/plate. Background control wells consisted of 1× assay buffer, DMSO (5% v/v) and substrate. Positive control wells consisted of enzyme, DMSO (5% v/v) and substrate. Test compounds and control compounds were diluted in DMSO to […] the final desired concentration. For example, a test compound may be tested in dose response, in serial, tripling dilution condition starting at 20 uM and ending at 9.1 nM (or any appropriate concentration range and dilution scheme). Control compounds were prepared similarly. Diluted compounds were prepared in a dilution plate and transferred to the reaction plate (96-well medium binding plate (Greiner Bio-One FLUOTRAC™)) to allow for the desired final concentrations when added to the enzyme with AB. After mixing, the reaction plate was placed on a shaker (at 300 RPM) for 5 min, followed by incubation (covered) on the bench, for 20 min. Plates were warmed to reaction temperature (see Table 3) for a total incubation time of 30 min. Plates so prepared were ready for addition of substrate and the subsequent reaction.
(§1) An appropriate substrate for each assay was prepared in advance at 2× the final desired concentration (see Table 2) in DMSO. The appropriate substrate mix was added to each appropriate well on the reaction plate, and the plate was read immediately in the TECAN plate reader (TECAN INFINITE® M1000 Pro), set to the correct wavelength as needed for each assay (see Table 3) using 25 cycles, kinetic interval of 1 min, number of reads per well of 20 with shaking set to 1 s, double orbital, 2 mm amplitude. For fluorescent assays the gain was set to optimal (50%).
An in vitro fluorogenic detection assay for assessing the IC50 and/or percent inhibition at a given concentration of inhibitors against human Granzyme B (hGzmB) enzyme was performed as described in Example D1. When appropriate, percent inhibition data was collected and fitted to generate IC50 data using GraphPad Prism 5 (GraphPad Software, La Jolla Calif. USA, www.graphpad.com) and its non-linear regression analysis tools or other equivalent tools. […]
as §1, with “5)” for “2)”, “assay buffer. 30 uL of the” for “DMSO. The”, “6)” for “3)”, “15” for “25”, “(100% with gain regulation) for all assays except human GzmB which was set to 85 (with the z set at 23000 um).” for “(50%).”
An in vitro fluorogenic detection assay for assessing the IC50 and/or percent inhibition at a given concentration of inhibitors against human Granzyme B (hGzmB) enzyme was performed as described in Example D5. When appropriate, percent inhibition data was collected and fitted to generate IC50 data using GraphPad Prism 5 (GraphPad Software, La Jolla Calif. USA, www.graphpad.com) and its non-linear regression analysis tools or other equivalent tools.

[1] = activity codes, Table 7, read-out: IC50 Activity Range

T1 sequence (P10144 21-247): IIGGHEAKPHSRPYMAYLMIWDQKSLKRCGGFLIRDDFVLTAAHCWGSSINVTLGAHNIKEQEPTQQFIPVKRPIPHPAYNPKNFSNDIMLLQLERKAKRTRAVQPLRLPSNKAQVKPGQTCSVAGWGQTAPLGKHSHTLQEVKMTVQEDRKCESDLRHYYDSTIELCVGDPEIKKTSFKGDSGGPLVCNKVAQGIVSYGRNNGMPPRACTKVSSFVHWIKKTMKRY

| Compound | IC50 [1] [µM] | IC50 [µM] |
| --- | --- | --- |
| CC[C@H](C)[C@H](NC(=O)[C@H](C)CC(=O)OC)C(=O)NCC(=O)N1c2ccccc2C[C@H]1C(=O)NCc1nn[nH]n1 [Example A29, Methyl (3R)-3-Methyl-3-{[(1S,2S)-2-Methyl-1-({2-Oxo-2-[(2S)-2-[(2H-1,2,3,4-Tetrazol-5-Ylmethyl)Carbamoyl]-2,3-Dihydro-1H-Indol-1-Yl]Ethyl}Carbamoyl)Butyl]Carbamoyl}Propanoate] | 0.1 to 1 | – |
| CC[C@H](C)[C@H](NC(=O)C1=C(C(=O)O)CCCC1)C(=O)NCC(=O)N1c2ccccc2C[C@H]1C(=O)NCc1nn[nH]n1 [Example A31] | < 0.1 | – |
| CC[C@H](C)[C@H](NC(=O)[C@@H](O)[C@H](O)C(=O)O)C(=O)NCC(=O)N1c2ccccc2C[C@H]1C(=O)NCc1nn[nH]n1 [Example A33, (2S,3S)-2,3-Dihydroxy-3-{[(1S,2S)-2-Methyl-1-({2-Oxo-2-[(2S)-2-[(2H-1,2,3,4-Tetrazol-5-Ylmethyl)Carbamoyl]-2,3-Dihydro-1H-Indol-1-Yl]Ethyl}Carbamoyl)Butyl]Carbamoyl}Propanoic Acid] | < 0.1 | – |
| CC[C@H](C)[C@H](NC(=O)Cc1cccc(CC(=O)O)c1)C(=O)NCC(=O)N1c2ccccc2C[C@H]1C(=O)NCc1nn[nH]n1 [Example A35, 2-[3-({[(1S,2S)-2-Methyl-1-({2-Oxo-2-[(2S)-2-[(2H-1,2,3,4-Tetrazol-5-Ylmethyl)Carbamoyl]-2,3-Dihydro-1H-Indol-1-Yl]Ethyl}Carbamoyl)Butyl]Carbamoyl}Methyl)Phenyl]Acetic Acid] | < 0.1 | – |
| CC[C@H](C)[C@H](NC(=O)/C=C/C(=O)O)C(=O)NCC(=O)N1c2ccccc2C[C@H]1C(=O)NCc1nn[nH]n1 [Example A36, (2E)-3-{[(1S,2S)-2-Methyl-1-({2-Oxo-2-[(2S)-2-[(2H-1,2,3,4-Tetrazol-5-Ylmethyl)Carbamoyl]-2,3-Dihydro-1H-Indol-1-Yl]Ethyl}Carbamoyl)Butyl]Carbamoyl}Prop-2-Enoic Acid] | < 0.1 | – |
| CC[C@H](C)[C@H](NC(=O)[C@@H](N)CC(=O)O)C(=O)NCC(=O)N1c2ccccc2C[C@H]1C(=O)NCc1nn[nH]n1 [Example A37, (3S)-3-Amino-3-{[(1S,2S)-2-Methyl-1-({2-Oxo-2-[(2S)-2-[(2H-1,2,3,4-Tetrazol-5-Ylmethyl)Carbamoyl]-2,3-Dihydro-1H-Indol-1-Yl]Ethyl}Carbamoyl)Butyl]Carbamoyl}Propanoic Acid] | – | 0.1 to 1 |
| CC[C@H](C)[C@H](NC(=O)[C@H](N)CC(=O)O)C(=O)NCC(=O)N1c2ccccc2C[C@H]1C(=O)NCc1nn[nH]n1 [Example A38, (3R)-3-Amino-3-{[(1S,2S)-2-Methyl-1-({2-Oxo-2-[(2S)-2-[(2H-1,2,3,4-Tetrazol-5-Ylmethyl)Carbamoyl]-2,3-Dihydro-1H-Indol-1-Yl]Ethyl}Carbamoyl)Butyl]Carbamoyl}Propanoic Acid] | – | 0.1 to 1 |
| CC[C@H](C)[C@H](NC(=O)C[C@H](N)C(=O)O)C(=O)NCC(=O)N1c2ccccc2C[C@H]1C(=O)NCc1nn[nH]n1 [Example A39, (2S)-2-Amino-3-{[(1S,2S)-2-Methyl-1-({2-Oxo-2-[(2S)-2-[(2H-1,2,3,4-Tetrazol-5-Ylmethyl)Carbamoyl]-2,3-Dihydro-1H-Indol-1-Yl]Ethyl}Carbamoyl)Butyl]Carbamoyl}Propanoic Acid] | 0.1 to 1 | – |
| CC[C@H](C)[C@H](NC(=O)C[C@@H](N)C(=O)O)C(=O)NCC(=O)N1c2ccccc2C[C@H]1C(=O)NCc1nn[nH]n1 [Example A40, (2R)-2-Amino-3-{[(1S,2S)-2-Methyl-1-({2-Oxo-2-[(2S)-2-[(2H-1,2,3,4-Tetrazol-5-Ylmethyl)Carbamoyl]-2,3-Dihydro-1H-Indol-1-Yl]Ethyl}Carbamoyl)Butyl]Carbamoyl}Propanoic Acid] | 0.1 to 1 | – |
| CC[C@@H](C)[C@H](NC(=O)Cc1ccccc1)C(=O)NCC(=O)N1c2ccccc2C[C@H]1C(=O)NCc1nn[nH]n1 [Example A42, (2S)-1-{2-[(2S,3R)-3-Methyl-2-(2-Phenylacetamido)Pentanamido]Acetyl}-N-(2H-1,2,3,4-Tetrazol-5-Ylmethyl)-2,3-Dihydro-1H-Indole-2-Carboxamide] | 1 to 10 | – |
| CC[C@H](C)[C@H](NC(=O)CCC(=O)OCCOC(=O)C(C)(C)C)C(=O)NCC(=O)N1c2ccccc2C[C@H]1C(=O)NCc1nn[nH]n1 [Example A47, 2-[(2,2-Dimethylpropanoyl)Oxy]Ethyl 3-{[(1S,2S)-2-Methyl-1-({2-Oxo-2-[(2S)-2-[(2H-1,2,3,4-Tetrazol-5-Ylmethyl)Carbamoyl]-2,3-Dihydro-1H-Indol-1-Yl]Ethyl}Carbamoyl)Butyl]Carbamoyl}Propanoate] | 0.1 to 1 | – |
| CC[C@H](C)[C@H](NC(=O)C1C[C@@H]1C(=O)O)C(=O)NCC(=O)N1c2ccccc2C[C@H]1C(=O)NCc1nn[nH]n1 (stereo partly drawn) [Example A48, (1S,2S)-2-{[(1S,2S)-2-Methy-1-({2-Oxo-2-[(2S)-2-[(2H-1,2,3,4-Tetrazol-5-Ylmethyl)Carbamoyl]-2,3-Dihydro-1H-Indol-1-Yl]Ethyl}Carbamoyl)Butyl]Carbamoyl}Cyclopropane-1-Carboxylic Acid] | 1 to 10 | – |
| CC[C@H](C)[C@H](NC(=O)[C@H](C)c1ccccc1)C(=O)NCC(=O)N1c2ccccc2C[C@H]1C(=O)NCc1nn[nH]n1 [Example A49, (2S)-1-{2-[(2S,3S)-3-Methyl-2-[(2R)-2-Phenylpropanamido]Pentanamido]Acetyl}-N-(2H-1,2,3,4-Tetrazol-5-Ylmethyl)-2,3-Dihydro-1H-Indole-2-Carboxamide] | 0.1 to 1 | – |
| CC[C@H](C)[C@H](NC(=O)[C@@H](C)c1ccccc1)C(=O)NCC(=O)N1c2ccccc2C[C@H]1C(=O)NCc1nn[nH]n1 [Example A50, (2S)-1-{2-[(2S,3S)-3-Methyl-2-[(2S)-2-Phenylpropanamido]Pentanamido]Acetyl}-N-(2H-1,2,3,4-Tetrazol-5-Ylmethyl)-2,3-Dihydro-1H-Indole-2-Carboxamide] | 0.1 to 1 | – |
| CC[C@H](C)[C@H](NC(=O)CCC(C(=O)O)c1ccccc1)C(=O)NCC(=O)N1c2ccccc2C[C@H]1C(=O)NCc1nn[nH]n1 (stereo partly drawn) [Example A51, 4-{[(1S,2S)-2-Methyl-1-({2-Oxo-2-[(2S)-2-[(2H-1,2,3,4-Tetrazol-5-Ylmethyl)Carbamoyl]-2,3-Dihydro-1H-Indol-1-Yl]Ethyl}Carbamoyl)Butyl]Carbamoyl}-2-Phenylbutanoic Acid] | < 0.1 | – |
| CC[C@H](C)[C@H](NC(=O)Cc1ccccc1)C(=O)NCC(=O)N1c2ccccc2C[C@H]1C(=O)NC(C)c1nn[nH]n1 (some centres unmarked) [Example B3] | 1 to 10 | – |
| CC[C@H](C)[C@H](NC(=O)Cc1ccccc1)C(=O)NCC(=O)N1c2cc(OC)ccc2CC1C(=O)NCc1c[nH]nn1 (stereo partly drawn) [Example B6, 6-Methoxy-1-{2-[(2S,3S)-3-Methyl-2-(2-Phenylacetamido)Pentanamido]Acetyl}-N-(1H-1,2,3-Triazol-5-Ylmethyl)-2,3-Dihydro-1H-Indole-2-Carboxamide] | 1 to 10 | – |
| C[C@@H](O)[C@H](NC(=O)Cc1ccccc1)C(=O)NCC(=O)N1c2ccccc2C[C@H]1C(=O)NCc1nn[nH]n1 [Example C2, (2S)-1-{2-[(2S,3R)-3-Hydroxy-2-(2-Phenylacetamido)Butanamido]Acetyl}-N-(2H-1,2,3,4-Tetrazol-5-Ylmethyl)-2,3-Dihydro-1H-Indole-2-Carboxamide] | > 10 | – |
| C[C@H](O)[C@H](NC(=O)Cc1ccccc1)C(=O)NCC(=O)N1c2ccccc2C[C@H]1C(=O)NCc1nn[nH]n1 [Example C3, (2S)-1-{2-[(2S,3S)-3-Hydroxy-2-(2-Phenylacetamido)Butanamido]Acetyl}-N-(2H-1,2,3,4-Tetrazol-5-Ylmethyl)-2,3-Dihydro-1H-Indole-2-Carboxamide] | > 10 | – |
| CC(C)C[C@H](NC(=O)Cc1ccccc1)C(=O)NCC(=O)N1c2ccccc2C[C@H]1C(=O)NCc1nn[nH]n1 [Example C4, (2S)-1-{2-[(2S)-4-Methyl-2-(2-Phenylacetamido)Pentanamido]Acetyl}-N-(2H-1,2,3,4-Tetrazol-5-Ylmethyl)-2,3-Dihydro-1H-Indole-2-Carboxamide] | 1 to 10 | – |
